According to US12077513B2, “Process route of compound of formula (IV), crystal form and preparation method therefor” (SHANDONG DANHONG PHARMACEUTICAL CO., LTD., priority 2018, dated 2024):

How the values were obtained:
VAP-1/SSAO cell = VAP-1/SSAO cell (Homo sapiens (Human), UniProt Q16853); experiment: VAP-1 cell activity assay (HUVEC or CHO cells transfected with VAP-1/pCDNA (3.1) plasmid, Amplex Red); assay type: cell-based; conditions: for Inhibitory activity against VAP-1/SSAO cells (conclusion in words): in vitro
Sequence of VAP-1/SSAO cell (Q16853 whole entry): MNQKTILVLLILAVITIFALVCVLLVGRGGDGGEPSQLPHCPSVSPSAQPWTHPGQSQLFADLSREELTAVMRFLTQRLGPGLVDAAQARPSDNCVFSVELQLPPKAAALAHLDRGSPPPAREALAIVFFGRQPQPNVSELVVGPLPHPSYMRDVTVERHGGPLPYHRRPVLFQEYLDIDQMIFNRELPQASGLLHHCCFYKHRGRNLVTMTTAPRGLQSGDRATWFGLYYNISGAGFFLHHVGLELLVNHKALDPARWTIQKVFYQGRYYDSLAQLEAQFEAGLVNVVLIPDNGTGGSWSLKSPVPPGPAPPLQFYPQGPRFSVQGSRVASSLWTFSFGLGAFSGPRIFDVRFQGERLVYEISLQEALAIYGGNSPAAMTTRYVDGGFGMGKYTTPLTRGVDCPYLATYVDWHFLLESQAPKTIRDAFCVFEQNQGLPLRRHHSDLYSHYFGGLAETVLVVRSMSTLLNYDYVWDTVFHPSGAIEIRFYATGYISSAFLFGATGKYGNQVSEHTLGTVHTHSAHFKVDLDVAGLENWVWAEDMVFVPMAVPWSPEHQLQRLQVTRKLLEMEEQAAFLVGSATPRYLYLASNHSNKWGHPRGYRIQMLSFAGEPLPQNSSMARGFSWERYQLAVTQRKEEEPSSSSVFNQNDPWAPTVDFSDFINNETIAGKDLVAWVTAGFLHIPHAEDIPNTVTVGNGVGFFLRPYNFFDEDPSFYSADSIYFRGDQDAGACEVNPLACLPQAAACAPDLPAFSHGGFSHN
Procedure: Amplex® Red Monoamine Oxidase Kit (Invitrogen #A12214) was used to determine the inhibitory effect of the sample on VAP-1 enzyme activity.
The HUVEC or CHO cells were plated onto a 6-well plate at a density of 0.8M/well, placed in a 37° C., 5% CO2 incubator for 24 hours, and then transfected with Lipo2000 reagent and VAP-1/pCDNA (3.1) plasmid. The medium was changed after 5 h (Lipo2000 is toxic to cells). After 24 h, the cells digested and plated into a 384-well plate at a density of 25 μl, 10000 cells/well, 6-7 h, and the cell medium was changed to the medium without FBS and the cell plate was placed in a 37° C. 5% CO2 incubator overnight.
• 1) Compound dilution: 4-fold serial dilution with 100% DMSO and diluted at 10 points. The initial concentration of the test compound was 0.5 mM (final concentration was […]); ECHO was used to transfer 100 nL of the compound solution to a 384-well cell detection plate. Negative control well: 100 nL DMSO; background control well: 100 nL DMSO+25 μL medium. • 2) Reaction was kept for 30 minutes at room temperature and protected from light. • 3) Amplex Red reagent+HRP+benzylamine substrate working solution preparation: • Amplex Red reagent+HRP+benzylamine substrate working solution (200 μM Amplex Red reagent+1 U/mL HRP+1 mM benzylamine): 45 μL of 20 mM Amplex Red reagent mother liquor, 22.5 μL of 200 U/mL horseradish peroxidase (HRP) mother liquor and 45 μL of 100 mM benzylamine were added to 4.3875 mL of 1× reaction buffer. • 4) After 30 minutes, 25 μL of the substrate working solution was added to a 384-well plate. […]

[1] = molecular target: Human recombinant VAP-1/SSAO enzyme (Homo sapiens (Human), UniProt Q16853); experiment: Human VAP-1 enzyme activity assay (Amplex Red Monoamine Oxidase Kit); assay type: biochemical; conditions: for Inhibitory activity against human recombinant VAP-1/SSAO enzyme (conclusion in words): in vitro
Sequence of Human recombinant VAP-1/SSAO enzyme (Q16853 whole entry): as above
Procedure: Human VAP-1 Enzyme Activity Assay:
Amplex® Red Monoamine Oxidase Kit (Invitrogen #A12214) was used to determine the inhibitory effects of the sample on VAP-1 enzyme activity. 100 nL Test compound (the solvent was DMSO) that had been gradiently diluted was added to a 384-well plate. 25 μL 10 nM VAP-1 enzyme solution was added, and the solution was incubated at room temperature for 30 minutes. The substrate mixture which had been added […] (200 μM Amplex Red, 1 U/mL HRP, 1 mM Benzylamine) was incubated at room temperature for 60 minutes. After the incubation, the fluorescence signal was read with a microplate reader Envision (excitation light wavelength 530-560 nm, emission light wavelength 590 nm). The fluorescence signal value after removing the background signal was analyzed with Prism software. The IC50 of the sample to the VAP-1 enzyme was calculated.

[2] = Solid stability test, crystal form characterized by XRPD; assay type: physicochemical
Procedure: An electronic balance was used to accurately weigh 60 mg sample of crystal form B of compound (IV) (3 samples in parallel for each stability test condition). The samples were placed in a dry and clean 5 mL beaker and spread into a thin layer. The aluminum foil was pierced with holes and placed on the beaker, fixed with rubber bands. The beaker was placed in tbc environment of various stability test conditions and remained for sampling at investigation time. The samples were investigated at 60° C. (5 days, 10 days), 25° C./92.5% RH (5 days, 10 days), 40° C./75% RH (one month, two months, three months), 60° C./75% RH (one month, two months) and light (10 days) conditions. X-ray powder diffraction (XRPD) was used to characterize the solid under various conditions.

[3] = listed as crystal form B of the compound of formula (IV)

## CC(C)n1nc(-c2ccc(OC/C(=C/F)CN)cc2)nc1C1CC1
VAP-1/SSAO cell; VAP-1 transfected HUVEC or CHO cells, read-out: VAP-1/SSAO cell activity assay test IC50
  IC50: 2.2 ± 1.49 nM
VAP-1/SSAO cell; [3]
  Inhibitory activity against VAP-1/SSAO cells (conclusion in words): strong inhibitory activity
[1]; 30 min preincubation, benzylamine substrate, read-out: Human recombinant VAP-1/SSAO enzyme inhibitory activity IC50
  IC50: 0.71 ± 0.21 nM
[1]; [3]
  Inhibitory activity against human recombinant VAP-1/SSAO enzyme (conclusion in words): strong inhibitory activity

## CC(C)n1nc(-c2ccc(OC/C(=C/F)CN)cc2)nc1C1CC1 [Compound of formula (IV)]
VAP-1/SSAO cell
  Inhibitory activity against VAP-1/SSAO cells (conclusion in words): strong inhibitory activity
[1]
  Inhibitory activity against human recombinant VAP-1/SSAO enzyme (conclusion in words): strong inhibitory activity

## CC(C)n1nc(-c2ccc(OC/C(=C/F)CN)cc2)nc1C1CC1 [Crystal form A]
[2]
  Stability (general statement in words): good stability
